Laboratory results taken from PMC6273433, “Design, Synthesis and Cytotoxicity of Novel Dihydroartemisinin-Coumarin Hybrids via Click Chemistry” (Molecules, 2016).
Where two headings read alike, the source gives them in different places.

Assays:
Format in all cases: cell-based
[1] = test system: MRC-5 (human fetal lung fibroblast cells, normal lung cell); test: MTT cytotoxicity assay, MRC-5 normal cells; conditions: MRC5, MRC-5, normoxia, 96 h MTT
Method: (§1) We focused our attention on the cytotoxicity of the four series of newly-synthesized compounds (10a–e, 11a–e, 12a–e, and 13a–e) under normoxic or anoxic conditions.
(§2) The data was calculated by the Logit method and presented as IC50 values in Table 1.
(§3) All of the newly-synthesized compounds were screened for in vitro cytotoxicity by MTT assay. The exponentially-growing MRC-5, HCT-116, MDA-MB-231, and HT-29 cells were allowed to grow until 80% confluency, the culture medium was discarded, digested with trypsin, separated centrifugally, then fresh culture medium was added and blown gently into single-cell suspension. Then, the cell suspension was seeded into each well of 96-well microculture plates at a concentration of 1.5 × 10^3–3 × 10^3 cells/well.
(§4) The cells were incubated with 50 μL of 2 mg/mL MTT solution for 4 h in a humidified incubator. The supernatant was discarded, and the media were then replaced with 200 μL of dimethyl sulfoxide to dissolve the purple colored formazan crystals formed in the wells, and their absorbances were measured at 492 nm with a microplate reader (Synergy-HT, BioTek Instruments, Winooski, VT, USA); 200 μL DMSO was set as the blank control.

[2] = test system: HCT-116 (human colorectal cancer cell line); test: MTT cytotoxicity assay, HCT-116 under anoxia or normoxia; conditions: for HCT-116 Value = IC50(normoxia)/IC50(anoxia): HCT-116, activity promotion under anoxia, >100 set as 100; for IC50: Homo sapiens
Method: as §1, §2, §3, §4
(§5) The anoxia condition was achieved by placing cells in a sealed hypoxia incubator chamber (Catalog Number 27310, Stemcell Technologies, Inc., Vancouver, BC, Canada) filled with 5% CO2 and 95% N2.

[3] = test system: MDA-MB-231 (human breast carcinoma cell line, CA IX negative); test: MTT cytotoxicity assay, MDA-MB-231 under anoxia or normoxia; conditions: for IC50: Homo sapiens; for MDA-MB-231 Value = IC50(normoxia)/IC50(anoxia): MDA-MB-231, activity promotion under anoxia, >100 set as 100
Method: as §1, §2, §3, §4, §5

[4] = test system: HT-29 (human colon carcinoma cell line, overexpresses high amounts of CA IX); test: MTT cytotoxicity assay, HT-29 under anoxia or normoxia; conditions: for HT-29 Value = IC50(normoxia)/IC50(anoxia): HT-29, activity promotion under anoxia; for IC50: Homo sapiens
Method: as §1, §2, §3, §4, §5

[5] = HCT-116, anoxia 24 h then normoxia 72 h, MTT, read-out: IC50 HCT-116 Anoxia
[6] = HCT-116, normoxia, 96 h MTT, read-out: IC50 HCT-116 Normoxia
[7] = MDA-MB-231, anoxia 24 h then normoxia 72 h, MTT, read-out: IC50 MDA-MB-231 Anoxia
[8] = MDA-MB-231, normoxia, 96 h MTT, read-out: IC50 MDA-MB-231 Normoxia
[9] = HT-29, anoxia 24 h then normoxia 72 h, MTT, read-out: IC50 HT-29 Anoxia
[10] = HT-29, normoxia, 96 h MTT, read-out: IC50 HT-29 Normoxia

Structure (SMILES)	IC50 [1]	HCT-116 Value = IC50(normoxia)/IC50(anoxia) [2]	IC50 [2, 5]	IC50 [2, 6]	IC50 [3, 7]	IC50 [3, 8]	MDA-MB-231 Value = IC50(normoxia)/IC50(anoxia) [3]	HT-29 Value = IC50(normoxia)/IC50(anoxia) [4]	IC50 [4, 9]	IC50 [4, 10]
Cc1cc(=O)oc2cc(OCCn3cc(CO[C@H]4O[C@@H]5O[C@@]6(C)CC[C@H]7[C@H](C)CC[C@@H]([C@H]4C)[C@@]57OO6)nn3)ccc12 [10a, 7-(2-(4-(10β-Dihydroartemisininoxy)methyl)-1H-1,2,3-triazol-1-yl)ethoxy-4-methyl-2H-chromen-2-one]	28 µM	0.86	11.9 µM	10.3 µM	36.7 µM	52 µM	1.42	8.35	1.47 µM	12.3 µM
C[C@H]1[C@@H](OCc2cn(CCOc3ccc4c(C(F)(F)F)cc(=O)oc4c3)nn2)O[C@@H]2O[C@@]3(C)CC[C@H]4[C@H](C)CC[C@@H]1[C@@]24OO3 [10b, 7-(2-(4-(10β-Dihydroartemisininoxy)methyl)-1H-1,2,3-triazol-1-yl)ethoxy-4-trifluoromethyl-2H-chromen-2-one]	33.6 µM	0.78	8.31 µM	6.46 µM	24.7 µM	28 µM	1.13	4.99	2.18 µM	10.9 µM
Cc1c(C)c2ccc(OCCn3cc(CO[C@H]4O[C@@H]5O[C@@]6(C)CC[C@H]7[C@H](C)CC[C@@H]([C@H]4C)[C@@]57OO6)nn3)cc2oc1=O [10c, 7-(2-(4-(10β-Dihydroartemisininoxy)methyl)-1H-1,2,3-triazol-1-yl)ethoxy-3,4-dimethyl-2H-chromen-2-one]	22.3 µM	0.95	6.89 µM	6.51 µM	33.2 µM	32.3 µM	0.97	11.50	1.82 µM	21 µM
Cc1c(Cl)c(=O)oc2cc(OCCn3cc(CO[C@H]4O[C@@H]5O[C@@]6(C)CC[C@H]7[C@H](C)CC[C@@H]([C@H]4C)[C@@]57OO6)nn3)ccc12 [10d, 3-Chloro-7-(2-(4-(10β-dihydroartemisininoxy)methyl)-1H-1,2,3-triazol-1-yl)ethoxy-4-methyl-2H-chromen-2-one]	50.7 µM	0.79	5.3 µM	4.18 µM	29.2 µM	61.4 µM	2.10	–	0.05 µM	17.7 µM
CCOC(=O)c1cc2ccc(OCCn3cc(CO[C@H]4O[C@@H]5O[C@@]6(C)CC[C@H]7[C@H](C)CC[C@@H]([C@H]4C)[C@@]57OO6)nn3)cc2oc1=O [10e, Ethyl 2-oxo-7-(2-(4-(10β-dihydroartemisininoxy)methyl)-1H-1,2,3-triazol-1-yl)ethoxy-2H-chromene-3-carboxylate]	52.5 µM	1.79	28.8 µM	51.5 µM	91.2 µM	> 100 µM	–	3.66	8.69 µM	31.8 µM
Cc1cc(=O)oc2cc(OCCCn3cc(CO[C@H]4O[C@@H]5O[C@@]6(C)CC[C@H]7[C@H](C)CC[C@@H]([C@H]4C)[C@@]57OO6)nn3)ccc12 [11a, 7-(3-(4-(10β-Dihydroartemisininoxy)methyl)-1H-1,2,3-triazol-1-yl)propoxy-4-methyl-2H-chromen-2-one]	15.5 µM	1.36	6.02 µM	8.21 µM	17.8 µM	51.2 µM	2.87	7.17	1.22 µM	8.78 µM
